The record followed here is patent US8304419B2, “Chemical compounds” (priority 2007, dated 2012).

Where a name gives a salt, the structure may show the parent alone. Read-outs that look alike come from different tables or passages of the source.

This assay concerns HIV wild type (WTRVA). The assay is described as follows: HeLa cell assay, wild type virus (WTRVA). Type of assay: cell-based, HIV-1. On the set-up: scale not given here. The note with it: Human immunodeficiency virus 1, HeLa.
[1] abbreviates: HeLa-CD4-LTR-β-gal cells, wild type virus, read-out: WTRVA activity level.
Setting [2] is: HeLa cell assay, read-out: IC50 against WTRVA.

As for `N#Cc1cc(Cl)cc(Oc2c(Cl)ccc(CNC(=O)c3cc4cc(Cl)ccc4o3)c2F)c1` [Example 49, 5-chloro-N-({4-chloro-3-[(3-chloro-5-cyanophenyl)oxy]-2-fluorophenyl}methyl)-1-benzofuran-2-carboxamide trifluoroacetate], the IC50 under setting [1] was greater than 1000 nM.
Same read-out and setting: the value for `Cc1cc(C)c(C(=O)NCc2ccc(Cl)c(Oc3cc(Cl)cc(C#N)c3)c2F)[nH]1` [Example 62, N-({4-chloro-3-[(3-chloro-5-cyanophenyl)oxy]-2-fluorophenyl}methyl)-3,5-dimethyl-1H-pyrrole-2-carboxamide trifluoroacetate] was less than 10 nM.
Turning to `N#Cc1cc(Oc2c(Cl)ccc(CNC(=O)c3[nH]cnc3Br)c2F)cc(C(F)F)c1` [Example 375, 4-bromo-N-[(4-chloro-3-{[3-cyano-5-(difluoromethyl)phenyl]oxy}-2-fluorophenyl)methyl]-1H-imidazole-5-carboxamide], the IC50 under setting [2] is less than 10 nM.
As for `C#Cc1cc(Cl)cc(Oc2c(Cl)ccc(CNC(=O)c3[nH]cnc3Cl)c2F)c1` [Example 293, 4-chloro-N-({4-chloro-3-[(3-chloro-5-ethynylphenyl)oxy]-2-fluorophenyl}methyl)-1H-imidazole-5-carboxamide], under setting [2], the IC50 is less than 10 nM.
The same measure, in the same setting: the value for `N#Cc1cc(Oc2c(Cl)ccc(CNC(=O)c3[nH]c(N)nc3Cl)c2F)cc(C2CC2)c1` [Example 307, 2-amino-4-chloro-N-({4-chloro-3-[(3-cyano-5-cyclopropylphenyl)oxy]-2-fluorophenyl}methyl)-1H-imidazole-5-carboxamide trifluoroacetate] was less than 10 nM; that for `N#Cc1cc(Cl)cc(Oc2c(Cl)ccc(CNC(=O)c3[nH]cnc3Cl)c2F)c1Cl` [Example 144, 4-chloro-N-({4-chloro-3-[(2,5-dichloro-3-cyanophenyl)oxy]-2-fluorophenyl}methyl)-1H-imidazole-5-carboxamide] was less than 10 nM.
As for `N#Cc1cc(Cl)cc(Oc2cc(CNC(=O)c3ccc(S(N)(=O)=O)cc3Cl)ccc2Cl)c1` [Example 4, 4-(aminosulfonyl)-2-chloro-N-({4-chloro-3-[(3-chloro-5-cyanophenyl)oxy]phenyl}methyl)benzamide trifluoroacetate], under setting [1], the IC50 was 10 to 1000 nM.
The same measure, in the same setting: for `Cc1[nH]c(C(=O)NCc2ccc(Cl)c(Oc3cc(Cl)cc(C#N)c3)c2F)c(C)c1C#N` [Example 71, N-({4-chloro-3-[(3-chloro-5-cyanophenyl)oxy]-2-fluorophenyl}methyl)-4-cyano-3,5-dimethyl-1H-pyrrole-2-carboxamide trifluoroacetate] the value was less than 10 nM; for `N#Cc1cc(Cl)cc(Oc2c(Cl)ccc(CNC(=O)c3cnccn3)c2F)c1` [Example 87, N-({4-chloro-3-[(3-chloro-5-cyanophenyl)oxy]-2-fluorophenyl}methyl)-2-pyrazinecarboxamide trifluoroacetate], less than 10 nM.
As to `Cc1cc(C#N)cc(Oc2c(Cl)ccc(CNC(=O)c3[nH]cnc3Cl)c2F)c1` [Example 145, 4-chloro-N-({4-chloro-3-[(3-cyano-5-methylphenyl)oxy]-2-fluorophenyl}methyl)-1H-imidazole-5-carboxamide], the IC50 under setting [2] was less than 10 nM.
Same read-out and setting: the value for `C[C@@H](O)C#Cc1cc(Cl)cc(Oc2c(Cl)ccc(CNC(=O)c3[nH]cnc3Cl)c2F)c1` [Example 319, 4-chloro-N-{[4-chloro-3-({3-chloro-5-[(3R)-3-hydroxy-1-butyn-1-yl]phenyl}oxy)-2-fluorophenyl]methyl}-1H-imidazole-5-carboxamide] was less than 10 nM.
As to `COc1ccc2c(C(=O)NCc3ccc(Cl)c(Oc4cc(Cl)cc(C#N)c4)c3)c[nH]c2c1` [Example 3, N-({4-chloro-3-[(3-chloro-5-cyanophenyl)oxy]phenyl}methyl)-6-(methyloxy)-1H-indole-3-carboxamide], under setting [1], the IC50 was greater than 1000 nM.
For `N#Cc1cc(Cl)cc(Oc2c(Cl)ccc(CNC(=O)c3cn[nH]c3)c2F)c1` [Example 100, N-({4-chloro-3-[(3-chloro-5-cyanophenyl)oxy]-2-fluorophenyl}methyl)-1H-pyrazole-4-carboxamide trifluoroacetate], the IC50 under setting [1] is less than 10 nM.
